Test results published in BigSolDB 2.1.

CC1=C(C(=O)O)N2C(=O)[C@@H](NC(=O)[C@H](N)C3=CCC=CC3)[C@H]2SC1
solubility (mole fraction)
Conditions | 283.15 K | 285.15 K | 288.15 K | 291.15 K | 293.15 K | 298.15 K | 303.15 K | 308.15 K
in ethanol | 0.000187 | 0.000195 | 0.000217 | 0.000233 | 0.000249 | 0.000299 | 0.000368 | 0.000442
in methanol | 0.000575 | 0.00061 | 0.00065 | 0.000702 | 0.000738 | 0.000845 | 0.000955 | 0.00108
in n-butanol | 0.000265 | 0.000288 | 0.000335 | 0.000369 | 0.000405 | 0.000478 | 0.000567 | 0.000657
in n-propanol | 0.00019 | 0.000198 | 0.000214 | 0.000238 | 0.000253 | 0.000319 | 0.000381 | 0.000469
in water | 0.00114 | – | 0.00115 | – | 0.00116 | 0.00117 | 0.00118 | 0.0012
